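All cell lines were grown in 96-well plates and treated with compound for 48 hours. GI50: concentration for 50% inhibition of growth. TGI denotes the concentration required for complete inhibition of growth.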
The compounds below were run on SW-620 colon (assay: inhibition of tumour cell growth, NCI panel, 48 h).

Row | Compound | GI50 [µM] | TGI [µM]
1 | CC(=O)c1c(C(F)(F)F)n([O-])c2ccc(C)cc2[n+]1=O | 3.54 | > 100
2 | COc1ccc(/C=N/NC(=O)Cn2c(-c3ccc(S(C)(=O)=O)cc3)nc3cc(Cl)ccc32)cc1 | 1.21 | > 50
3 | COc1cc2c(c(OC)c1OC)-c1ccc(SC)c(=O)cc1[C@@H](NC1OC(CO)C(O)C(O)C1O)CC2 (some centres undefined) | 0.0294 | > 100
4 | CCOc1nc(N)nc(C)c1N=Nc1ccc(Cl)cc1 | – | > 100
5 | CCN(Cc1ccc(Cl)s1)c1ccc(CO)c(Cl)c1 | 0.506 | > 55.2
6 | Nc1ccccc1SCc1csc(-c2ccc(Cl)cc2)n1 | – | > 100
7 | CSC(=S)N/N=C(\C)c1cccc(C)n1 | – | > 56.9
8 | N#Cc1c(N)[nH]c2ccc(Sc3ccccc3)cc12 | – | 16.9
9 | COc1ccc(OC)c(C2SCC(=O)N2NC(=O)C(O)c2ccccc2)c1 (centres undefined) | > 100 | > 100
10 | CCN1C(=O)N(CC)C2C1NN=c1s/c(=C\c3ccccc3Br)c(=O)n12 (centres undefined) | 0.037 | > 54.2
11 | O=C(O)COc1c(Cl)cc(Cl)c2cccnc12 | – | > 100
12 | CC(C)(C)c1ccc(C(=O)Nc2sc3c(c2C(N)=O)CCC(=O)C3)cc1 | 0.187 | 1.28
13 | O=C(Nc1cccc(Nc2ncc(Br)c(NCCc3cnc[nH]3)n2)c1)N1CCCC1 | 1.27 | 11.4
14 | C[C@@H]1O[C@@H](O[C@H]2CC[C@@]3(C)[C@H](CCC4[C@@H]3C(O)C[C@]3(C)[C@@H](c5ccc(=O)oc5)CC[C@]43O)C2)[C@H](O)[C@H](O)[C@H]1O (some centres undefined) | 0.00489 | 0.0123
15 | Cc1ccc(C2=Nc3ccccc3SC(c3cccc([N+](=O)[O-])c3)C2)cc1 (centres undefined) | – | > 100
16 | CN1CCC(n2cnc(-c3ccc(F)cc3)c2-c2ccnc(N)n2)CC1 | 5.93 | > 25
17 | COc1cc(/C=C/[N+](=O)[O-])cc(Br)c1OC | 1.57 | 3.37
18 | CN(CC(N)=O)C(=O)N(CCCl)N=O | – | > 100
19 | Cc1ccc(NC(=O)c2ccccc2C(=O)O)cc1C | – | > 100
20 | CC(C)=CCC/C(C)=C/CC/C(C)=C/CC/C=C(\C)CC/C=C(\C)CCC(=O)Nc1ccn(C2OC(CO)C(O)C2(F)F)c(=O)n1 (centres undefined) | 0.48 | 21.4
21 | COc1ccc(-c2cc(=O)c3c(OC)c(OC)c(OC)c(OC)c3o2)cc1 | – | > 100
22 | CC(C)(C)CN1CCn2c(nc3c(N)nccc32)S1 | 4.16 | 30.1
23 | COc1ccc2c(c1)OC1=C(C(=O)OC1)C2c1cc(OC)c2c(c1)OCO2 (centres undefined) | 0.0407 | > 100
24 | Cc1c(C2=C(c3cn(C)c4ccccc34)C(=O)NC2=O)c2ccccc2n1C | 1.26 | > 25
25 | CC1(C)CCC[C@]2(C)[C@@H](C=O)C(C=O)=CC[C@@H]12 | – | > 100
26 | CCn1c2ccccc2c2cc(/C=C(/C#N)C(N)=O)ccc21 | 4.86 | > 100
27 | COc1ccc(C(=O)N2c3ccccc3Sc3ccccc32)c(OC)c1 | 0.412 | > 100
28 | CN1CCN(CC(O)COc2c(Br)c(Br)c(Br)c3c2OC(C)(C)C3)CC1 (centres undefined) | 3.16 | 8.81
29 | CCN1C(=O)N(CC)C2C1NN=c1s/c(=C3\C(=O)N(CCc4ccccc4)c4ccccc43)c(=O)n12 (centres undefined) | 0.492 | > 100

Each compound was assayed on DU-145 prostate (assay: inhibition of tumour cell growth, NCI panel, 48 h).

Row | Compound | GI50 [µM] | TGI [µM]
30 | CC(=O)c1c(C(F)(F)F)n([O-])c2ccc(C)cc2[n+]1=O | 1.43 | 3.07
31 | COc1ccc(/C=N/NC(=O)Cn2c(-c3ccc(S(C)(=O)=O)cc3)nc3cc(Cl)ccc32)cc1 | 1.95 | > 50
32 | COc1cc2c(c(OC)c1OC)-c1ccc(SC)c(=O)cc1[C@@H](NC1OC(CO)C(O)C(O)C1O)CC2 (some centres undefined) | 0.0352 | > 100
33 | CCOc1nc(N)nc(C)c1N=Nc1ccc(Cl)cc1 | – | > 100
34 | CCN(Cc1ccc(Cl)s1)c1ccc(CO)c(Cl)c1 | 12 | > 60.4
35 | Nc1ccccc1SCc1csc(-c2ccc(Cl)cc2)n1 | – | 99.1
36 | CSC(=S)N/N=C(\C)c1cccc(C)n1 | – | 12.8
37 | N#Cc1c(N)[nH]c2ccc(Sc3ccccc3)cc12 | – | 15.5
38 | COc1ccc(OC)c(C2SCC(=O)N2NC(=O)C(O)c2ccccc2)c1 (centres undefined) | > 100 | > 100
39 | CCN1C(=O)N(CC)C2C1NN=c1s/c(=C\c3ccccc3Br)c(=O)n12 (centres undefined) | 0.0362 | > 38.7
40 | O=C(O)COc1c(Cl)cc(Cl)c2cccnc12 | – | > 100
41 | CC(C)(C)c1ccc(C(=O)Nc2sc3c(c2C(N)=O)CCC(=O)C3)cc1 | 2.72 | 11.1
42 | O=C(Nc1cccc(Nc2ncc(Br)c(NCCc3cnc[nH]3)n2)c1)N1CCCC1 | 7.08 | 36.5
43 | C[C@@H]1O[C@@H](O[C@H]2CC[C@@]3(C)[C@H](CCC4[C@@H]3C(O)C[C@]3(C)[C@@H](c5ccc(=O)oc5)CC[C@]43O)C2)[C@H](O)[C@H](O)[C@H]1O (some centres undefined) | 0.00355 | 0.00516
44 | Cc1ccc(C2=Nc3ccccc3SC(c3cccc([N+](=O)[O-])c3)C2)cc1 (centres undefined) | – | > 100
45 | CN1CCC(n2cnc(-c3ccc(F)cc3)c2-c2ccnc(N)n2)CC1 | 10.7 | > 25
46 | COc1cc(/C=C/[N+](=O)[O-])cc(Br)c1OC | 1.8 | 3.56
47 | CN(CC(N)=O)C(=O)N(CCCl)N=O | – | > 100
48 | Cc1ccc(NC(=O)c2ccccc2C(=O)O)cc1C | – | > 100
49 | CC(C)=CCC/C(C)=C/CC/C(C)=C/CC/C=C(\C)CC/C=C(\C)CCC(=O)Nc1ccn(C2OC(CO)C(O)C2(F)F)c(=O)n1 (centres undefined) | 0.0455 | 3.23
50 | COc1ccc(-c2cc(=O)c3c(OC)c(OC)c(OC)c(OC)c3o2)cc1 | – | > 100
51 | CC(C)(C)CN1CCn2c(nc3c(N)nccc32)S1 | 4.46 | > 100
52 | COc1ccc2c(c1)OC1=C(C(=O)OC1)C2c1cc(OC)c2c(c1)OCO2 (centres undefined) | 0.0364 | 0.459
53 | Cc1c(C2=C(c3cn(C)c4ccccc34)C(=O)NC2=O)c2ccccc2n1C | 9.62 | > 25
54 | CC1(C)CCC[C@]2(C)[C@@H](C=O)C(C=O)=CC[C@@H]12 | – | 50.3
55 | CCn1c2ccccc2c2cc(/C=C(/C#N)C(N)=O)ccc21 | 13.8 | > 100
56 | COc1ccc(C(=O)N2c3ccccc3Sc3ccccc32)c(OC)c1 | 0.491 | > 100
57 | CN1CCN(CC(O)COc2c(Br)c(Br)c(Br)c3c2OC(C)(C)C3)CC1 (centres undefined) | 11.8 | 24.5
58 | CCN1C(=O)N(CC)C2C1NN=c1s/c(=C3\C(=O)N(CCc4ccccc4)c4ccccc43)c(=O)n12 (centres undefined) | 0.558 | 6.95

These compounds were tested on UACC-62 melanoma (assay: inhibition of tumour cell growth, NCI panel, 48 h).

Row | Compound | GI50 [µM] | TGI [µM]
59 | CC(=O)c1c(C(F)(F)F)n([O-])c2ccc(C)cc2[n+]1=O | 1.31 | 3.34
60 | COc1ccc(/C=N/NC(=O)Cn2c(-c3ccc(S(C)(=O)=O)cc3)nc3cc(Cl)ccc32)cc1 | 0.709 | > 50
61 | COc1cc2c(c(OC)c1OC)-c1ccc(SC)c(=O)cc1[C@@H](NC1OC(CO)C(O)C(O)C1O)CC2 (some centres undefined) | 0.0549 | > 100
62 | CCOc1nc(N)nc(C)c1N=Nc1ccc(Cl)cc1 | – | > 100
63 | CCN(Cc1ccc(Cl)s1)c1ccc(CO)c(Cl)c1 | 0.0861 | 0.438
64 | Nc1ccccc1SCc1csc(-c2ccc(Cl)cc2)n1 | – | > 64
65 | CSC(=S)N/N=C(\C)c1cccc(C)n1 | – | 3.67
66 | N#Cc1c(N)[nH]c2ccc(Sc3ccccc3)cc12 | – | 2.5
67 | COc1ccc(OC)c(C2SCC(=O)N2NC(=O)C(O)c2ccccc2)c1 (centres undefined) | > 100 | > 100
68 | CCN1C(=O)N(CC)C2C1NN=c1s/c(=C\c3ccccc3Br)c(=O)n12 (centres undefined) | 0.278 | 20.6
69 | O=C(O)COc1c(Cl)cc(Cl)c2cccnc12 | – | > 100
70 | CC(C)(C)c1ccc(C(=O)Nc2sc3c(c2C(N)=O)CCC(=O)C3)cc1 | 0.498 | 2.01
71 | O=C(Nc1cccc(Nc2ncc(Br)c(NCCc3cnc[nH]3)n2)c1)N1CCCC1 | 6.12 | 22.4
72 | C[C@@H]1O[C@@H](O[C@H]2CC[C@@]3(C)[C@H](CCC4[C@@H]3C(O)C[C@]3(C)[C@@H](c5ccc(=O)oc5)CC[C@]43O)C2)[C@H](O)[C@H](O)[C@H]1O (some centres undefined) | 0.00698 | 0.0153

Source: PubChem BioAssay (NCI)
